The values that follow come from patent publication US5712300A, “Hydroxamic acid derivatives useful for the treatment of diseases related to connective tissue degradation” (priority 1997, dated 1998).

Structures are written as SMILES.

Holding throughout (format): biochemical
One experiment has as its target Gelatinase. Kind of experiment: MMP inhibition by particle concentration fluorescence technique (gelatinase). The following applies: pH 7.5; 15 min enzyme preincubation; substrate 1-3 h at room temperature; read-out: MMP Inhibition Constants, Gelatinase Ki. As for the experimental part:
(§1) Inhibitory activity is evaluated in one or more of the MMP enzymes (stromelysin, gelatinase, and collagenase) in vitro using a particle concentration fluorescence techniques. An inhibitor binds to MMP enzymes prevents the degradation of a substrate of stromelysin, gelatinase, or collagenase. The substrate is attached with a fluorescein and a biotin. The intact substrate then binds to an avidin-coated particle via the biotin moiety. Once the particle is washed and dried, a fluorescent signal is generated since the fluorescent group is attached to the particle. Without an inhibitor present, the substrate is degraded by MMP enzymes and the fluorescein group is removed, therefore, no fluorescent signal can be detected. Testing compounds are dissolved in DMSO to the desired concentration, then the solutions are diluted to 1:5 with MMP buffer (50 mM Tris-HCl, pH 7.5; 150 mM NaCl; 0.02% NAN3). Serial two-fold dilutions of each compound are prepared. A concentrated, activated enzyme solution is transferred into each plate of the testing compounds, and the mixture is incubated at room temperature for 15 minutes. Thawed MMP substrate is then added into all plates, and the plates are incubate in the dark for 1-3 hours at room temperature. At this point, the substrate mixture is reacted with 0.1% avidin-coated polystyrene particles.

The target of another experiment is T1, Collagenase (Homo sapiens, UniProt P03956).
T1 sequence (P03956 100-469): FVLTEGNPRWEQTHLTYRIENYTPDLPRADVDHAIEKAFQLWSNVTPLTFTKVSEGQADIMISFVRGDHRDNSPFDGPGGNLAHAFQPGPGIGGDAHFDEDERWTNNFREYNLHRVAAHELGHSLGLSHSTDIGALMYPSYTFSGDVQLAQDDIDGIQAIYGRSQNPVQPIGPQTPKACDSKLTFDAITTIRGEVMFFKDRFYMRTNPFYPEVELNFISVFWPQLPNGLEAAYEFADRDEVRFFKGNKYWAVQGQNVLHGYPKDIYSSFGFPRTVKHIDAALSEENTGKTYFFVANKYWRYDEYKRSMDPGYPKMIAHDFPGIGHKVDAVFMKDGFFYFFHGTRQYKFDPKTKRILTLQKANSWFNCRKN
Put plainly: MMP inhibition by particle concentration fluorescence technique (collagenase). The following applies: pH 7.5; 15 min enzyme preincubation; substrate 1-3 h at room temperature; read-out: MMP Inhibition Constants, Collagenase Ki. As to the method: as §1

The next experiment addresses Stromelysin (Homo sapiens, UniProt P08254). Kind of experiment: MMP inhibition by particle concentration fluorescence technique (stromelysin). The following applies: pH 7.5; 15 min enzyme preincubation; substrate 1-3 h at room temperature; read-out: MMP Inhibition Constants, Stromelysin Ki. From the text: An inhibitor binds to MMP enzymes prevents the degradation of a substrate of stromelysin, gelatinase, or collagenase. The substrate is attached with a fluorescein and a biotin. The intact substrate then binds to an avidin-coated particle via the biotin moiety. Once the particle is washed and dried, a fluorescent signal is generated since the fluorescent group is attached to the particle. Without an inhibitor present, the substrate is degraded by MMP enzymes and the fluorescein group is removed, therefore, no fluorescent signal can be detected. […] Serial two-fold dilutions of each compound are prepared. A concentrated, activated enzyme solution is transferred into each plate of the testing compounds, and the mixture is incubated at room temperature for 15 minutes.

Sequence of Stromelysin (P08254 100-477): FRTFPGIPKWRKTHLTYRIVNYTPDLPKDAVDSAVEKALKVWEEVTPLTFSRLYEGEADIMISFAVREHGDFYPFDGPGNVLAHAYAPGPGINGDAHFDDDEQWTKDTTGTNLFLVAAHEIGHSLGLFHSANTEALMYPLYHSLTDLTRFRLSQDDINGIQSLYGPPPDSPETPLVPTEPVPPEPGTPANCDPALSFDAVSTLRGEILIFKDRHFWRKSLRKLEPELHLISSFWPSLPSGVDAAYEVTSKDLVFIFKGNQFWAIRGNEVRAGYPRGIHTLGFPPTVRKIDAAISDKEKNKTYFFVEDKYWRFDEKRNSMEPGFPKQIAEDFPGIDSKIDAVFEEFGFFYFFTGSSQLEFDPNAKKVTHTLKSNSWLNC

As a reminder, the Ki is a measure of affinity in units of concentration, obtained from inhibition or displacement. Regarding `CC(C)C[C@@]1([C@H](CCN2C(=O)c3ccccc3C2=O)C(=O)NO)CCN(CCc2ccc(F)cc2)C1=O` (relative stereo) [Example 72, 1,3-Dihydro-N-hydroxy-α-[3-(2-methylpropyl)-2-oxo-1-[2-(4-fluorophenyl)ethyl]-3-pyrrolidinyl]-1,3-dioxo-2H-isoindole-2-butanamide], the Ki at Gelatinase worked out at 83 nM; on Collagenase, 39 nM; on Stromelysin, 640 nM.

As for `CC(C)C[C@@]1([C@@H](CCNC(=O)c2ccc(F)cc2)C(=O)NO)CCN(CCc2ccccc2)C1=O` (relative stereo) [Example 75, α-[2-[(4-Fluorobenzoyl)amino]ethyl]-N-hydroxy-3-(2-methylpropyl)-2-oxo-1-(2-phenylethyl)-3-pyrrolidineacetamide], the Ki on Gelatinase turned out to be 264 nM; at Collagenase it was 74 nM; at Stromelysin, 295 nM.

Regarding `CC(C)C[C@@]1([C@@H](CCNC(=O)c2cccc([N+](=O)[O-])c2)C(=O)NO)CCN(CCc2ccccc2)C1=O` (relative stereo) [Example 76, N-Hydroxy-3-(2-methylpropyl)-α-[2-[(3-nitrobenzoyl)amino]ethyl]-2-oxo-1-(2-phenylethyl)-3-pyrrolidineacetamide], the Ki on Gelatinase worked out at 3300 nM; on Collagenase, 298 nM; on Stromelysin, 10800 nM.

For the molecule `CC(C)C[C@@]1([C@@H](CCNC(=O)c2cccc(F)c2)C(=O)NO)CCN(CCc2ccc(F)cc2)C1=O` (relative stereo) [Example 78, α-[2-[(3-Fluorobenzoyl)amino]ethyl]-1-[2-(4-fluorophenyl)ethyl]-N-hydroxy-3-(2-methylpropyl)-2-oxo-3-pyrrolidineacetamide], the Ki on Gelatinase turned out to be 278 nM; at Collagenase, 18 nM; on Stromelysin, 696 nM.

For the molecule `CC(C)C[C@@]1([C@@H](CCNC(=O)c2ccc(-c3ccccc3)cc2)C(=O)NO)CCN(CCc2ccccc2)C1=O` (relative stereo) [Example 79, α-[2-[(4-Biphenylcarbonyl)amino]ethyl]-N-hydroxy-3-(2-methylpropyl)-2-oxo-1-(2-phenylethyl)-3-pyrrolidineacetamide], the Ki turned out to be 1.77 nM at Gelatinase, 339 nM on Collagenase and 38 nM on Stromelysin.

For the molecule `COc1ccc(S(=O)(=O)NCC[C@@H](C(=O)NO)[C@]2(CC(C)C)CCN(CCc3ccccc3)C2=O)cc1` (relative stereo) [Example 82, N-Hydroxy-α-[2-[[(4-methoxyphenyl)sulfonyl]amino]ethyl]-3-(2-methylpropyl)-2-oxo-1-(2-phenylethyl)-3-pyrrolidineacetamide], the inhibitory constant (Ki) at Gelatinase came out at 878 nM; at Collagenase, 2400 nM; at Stromelysin, 379 nM.

In the case of `CC(C)C[C@@]1([C@@H](CCNS(=O)(=O)c2ccccc2)C(=O)NO)CCN(CCc2ccccc2)C1=O` (relative stereo) [Example 83, N-Hydroxy-3-(2-methylpropyl)-2-oxo-1-(2-phenylethyl)-α-[2-[(phenylsulfonyl)amino]ethyl]-3-pyrrolidineacetamide], the Ki worked out at 580 nM at Gelatinase, 17000 nM on Collagenase and 107 nM on Stromelysin.

`CC(C)C[C@@]1([C@@H](CCN2Cc3ccccc3C2=O)C(=O)NO)CCN(CCc2ccccc2)C1=O` (relative stereo) [Example 86, 1,3-Dihydro-N-hydroxy-α-[8-(2-methylpropyl)-2-oxo-1-(2-phenylethyl)-3-pyrrolidinyl]-1-oxo-2H-isoindole-2-butanamide]: the Ki on Gelatinase turned out to be 46 nM; at Collagenase, 647 nM; at Stromelysin, 102 nM.

Turning to `COc1ccc(S(=O)(=O)NC[C@H](C(=O)NO)[C@]2(CC(C)C)CCN(CCc3ccccc3)C2=O)cc1` (relative stereo) [Example 90, N-Hydroxy-α-[[[(4-methoxyphenyl)sulfonyl]amino]methyl]-3-(2-methylpropyl)-2-oxo-1-(2-phenylethyl)-3-pyrrolidineacetamide], the Ki on Gelatinase was 624 nM; at Collagenase, 52 nM; on Stromelysin, 1770 nM.

As for `CC(C)C[C@@]1([C@@H](NS(=O)(=O)c2ccc(F)cc2)C(=O)NO)CCN(CCc2ccccc2)C1=O` (relative stereo) [Example 92, α-[[(4-Fluorophenyl)sulfonyl]amino]-N-hydroxy-3-(2-methylpropyl)-2-oxo-1-(2-phenylethyl)-3-pyrrolidineacetamide], the figures for the inhibitory constant (Ki) on Gelatinase, at Collagenase and at Stromelysin were 273 nM, 370 nM and 309 nM, respectively.

For `CC(C)C[C@@]1([C@H](NS(=O)(=O)c2ccc(F)cc2)C(=O)NO)CCN(CCc2ccccc2)C1=O` (relative stereo) [Example 93, α-[[(4-Fluorophenyl)sulfonyl]amino]-N-hydroxy-3-(2-methylpropyl)-2-oxo-1-(2-phenylethyl)-3-pyrrolidineacetamide], the values for the Ki on Gelatinase, on Collagenase and at Stromelysin were 1100 nM, 98 nM and 2080 nM, respectively.

As for `O=C(NCC[C@@H](C(=O)NO)[C@]1(CCCO)CCN(CCc2ccccc2)C1=O)c1ccc(F)c(F)c1` (relative stereo) [Example 94, α-[2-[(3,4-Difluorobenzoyl)amino]ethyl]-N-hydroxy-3-(3-hydroxypropyl)-2-oxo-1-(2-phenylethyl)-3-pyrrolidineacetamide], the Ki on Gelatinase amounted to 1.2 nM; on Collagenase it was 13.4 nM; on Stromelysin, 16 nM.

Turning to `O=C(NCC[C@@H](C(=O)NO)[C@]1(CCO)CCN(CCc2ccccc2)C1=O)c1ccc(F)c(F)c1` (relative stereo) [Example 95, α-[2-[(3,4-Difluorobenzoyl)amino]ethyl]-N-hydroxy-3-(2-hydroxyethyl)-2-oxo-1-(2-phenylethyl)-3-pyrrolidineacetamide], the results for the Ki on Gelatinase, at Collagenase and on Stromelysin were 13 nM, 25 nM and 119 nM, respectively.

Consider `CC(C)CC1(CC(=O)NO)CCN(CCc2ccccc2)C1=O` (stereo not drawn) [Example 1, N-Hydroxy-3-(2-methylpropyl)-2-oxo-1-(2-phenylethyl)-3-pyrrolidineacetamide], for which the figures for the inhibition constant (Ki) on Gelatinase, on Collagenase and at Stromelysin were 3550 nM, 2300 nM and 27200 nM, respectively.

For the molecule `CC(C)C[C@@]1(CC(=O)NO)CCN(CCc2ccccc2)C1=O` [Example 2, (3S)-N-Hydroxy-3-(2-methylpropyl)-2-oxo-1-(2-phenylethyl)-3-pyrrolidineacetamide], the Ki on Gelatinase turned out to be 3290 nM; at Collagenase, 1040 nM; at Stromelysin, 20200 nM.

Take `CC(C)CC1(C(C)C(=O)NO)CCN(CCc2ccccc2)C1=O` (stereo not drawn) [Example 3, N-Hydroxy-α-methyl-3-(2-methylpropyl)-2-oxo-1-(2-phenylethyl)-3-pyrrolidineacetamide]: the Ki on Gelatinase is 11700 nM; on Collagenase, 4230 nM; on Stromelysin, 10900 nM.

On to `CNC(=O)CN1CCC(CC(=O)NO)(CC(C)C)C1=O` (stereo not drawn) [Example 20, N^3 -Hydroxy-N^1-methyl-3-(2-methylpropyl)-2-oxo-1,3-pyrrolidinediacetamide], for which the results for the Ki at Gelatinase, on Collagenase and at Stromelysin were 3100 nM, 579 nM and 16600 nM, respectively.

For `CNC(=O)C(Cc1ccccc1)N1CCC(CC(=O)NO)(CC(C)C)C1=O` (stereo not drawn) [Example 21, N^3 -Hydroxy-N^1-methyl-3-(2-methylpropyl)-2-oxo-α^1-(phenylmethyl)-1,3-pyrrolidinediacetamide], the inhibitory constant (Ki) on Gelatinase stood at 49 nM; on Collagenase, 22 nM; at Stromelysin, 2080 nM.
